Converted amounts (≈) assume the structure as drawn.
Columns and labels:
[1] = Parallel artificial membrane permeability assay (PAMPA) for BBB permeability; format: in vitro ADME; details: PAMPA, pH 7.2, BBB lipid membrane, PBS (pH 7.2); read-out: PAMPA Pe
Procedure: • PAMPA: PMBBB-096 Kit • Assay format: 96-well plate • Reference substance: Imipramine (H) (10 µM) • Test substance concentration: 10 µM • Number of replicates: 3 • Reaction time: 6 hours at 25°C on a shaker (75 - 80 rpm) • Analytical method: LC-MS/MS • Data processing: Pe (cm/s)
The test compounds (crystalline forms A and C) were dissolved in DMSO at a concentration of 10 mM […] to prepare standard solutions. Next, dried brain lipids were resuspended in 600 µL dodecane to prepare a BBB lipid solution in dodecane. Pipetting up and down was repeated (~100 times) until all dried brain lipids were dissolved (vortexing or sonication may be helpful). A 10 µM reaction solution in PBS containing 5% DMSO was prepared.
The experiments were conducted in a 96-well plate using the prepared reaction solution of each test compound and the BBB lipid solution according to the following assay procedure. • 1. 500 µL of a 500 µM test compound solution (prepared by mixing 25 µL of a 10 mM test compound + 475 µL of PBS (pH 7.2) in DMSO) was prepared in a separate centrifuge tube. When a permeability control was used, it was diluted to 500 µM using PBS (prepared by mixing 25 µL of permeability control + 475 µL of PBS (pH 7.2)). • 2. For each test compound and control, a 200 µM equilibrium standard was prepared in a separate tube (by mixing 80 µL of 500 µM test compound or control with 120 µL of PBS (pH 7.2)). […] The absorbance spectrum from 200 nm to 500 nm was measured at 10 nm intervals to determine the peak absorbance of the test compounds. […] The peak absorbances of the high-permeability and low-permeability controls are 250 nm and 270 nm, respectively.
For the compounds and permeability controls, the permeability rate (Pe) was determined using the following equation: Pe = C × −ln(1−(ODA)/(ODE))cm/s [formula]
Here, ODA is the absorbance of the acceptor solution minus the blank, and ODE is the absorbance of the equilibrium standard minus the blank. For each absorbance value, the peak absorbance determined for each test was used. […]

[2] = Solubility assay of crystalline form A in 17 solvents; format: physicochemical; details: thermodynamic from solid
Procedure: For solubility assay, about 5 mg or about 10 mg of crystalline form A was weighed into a 2 mL glass vial. A 20 µL aliquot of each of the 17 solvents listed in Table 8 was added to the vial to dissolve the drug substance. For about 5 mg of crystalline form A, the drug substance was dissolved at 25°C; and for about 10 mg of crystalline form A, the drug substance was dissolved at 50°C. To aid dissolution, vortexing and sonication were applied to facilitate dissolution, and the maximum volume of each solvent added was 1 mL.

- Papp at 6 h, 10 µM [1]: 0.00925 ×10⁻⁶ cm/s
- solubility ([2]; organic solvent or mixture, 1,4-Dioxane, 25°C): > 250 mg/mL
- solubility ([2]; organic solvent or mixture, 1,4-Dioxane, 50°C): > 500 mg/mL
- solubility ([2]; organic solvent or mixture, 2-MeTHF, 25°C): > 250 mg/mL
- solubility ([2]; organic solvent or mixture, 2-MeTHF, 50°C): > 500 mg/mL
- solubility ([2]; organic solvent or mixture, Acetone, 25°C): 125 to 250 mg/mL (≈ 398 to 797 mM)
- solubility ([2]; organic solvent or mixture, Acetone, 50°C): > 500 mg/mL
- solubility ([2]; organic solvent or mixture, Acetonitrile, 25°C): 41 to 50 mg/mL (≈ 131 to 159 mM)
- solubility ([2]; organic solvent or mixture, Acetonitrile, 50°C): > 500 mg/mL
- solubility ([2]; organic solvent or mixture, DMF, 25°C): > 250 mg/mL
- solubility ([2]; organic solvent or mixture, DMF, 50°C): > 500 mg/mL
- solubility ([2]; organic solvent or mixture, DMSO, 25°C): > 250 mg/mL
- solubility ([2]; organic solvent or mixture, DMSO, 50°C): > 500 mg/mL
- solubility ([2]; organic solvent or mixture, Dichloromethane, 25°C): > 250 mg/mL
- solubility ([2]; organic solvent or mixture, Dichloromethane, 50°C): > 500 mg/mL
- solubility ([2]; organic solvent or mixture, Ethanol, 25°C): 125 to 250 mg/mL (≈ 398 to 797 mM)
- solubility ([2]; organic solvent or mixture, Ethanol, 50°C): > 500 mg/mL
- solubility ([2]; organic solvent or mixture, Ethyl acetate, 25°C): 41 to 50 mg/mL (≈ 131 to 159 mM)
- solubility ([2]; organic solvent or mixture, Ethyl acetate, 50°C): 250 to 500 mg/mL (≈ 797 to 1590 mM)
- solubility ([2]; organic solvent or mixture, Heptane, 25°C): < 5 mg/mL
- solubility ([2]; organic solvent or mixture, Heptane, 50°C): < 10 mg/mL
- solubility ([2]; organic solvent or mixture, Isopropyl acetate, 25°C): 63 to 83 mg/mL (≈ 201 to 265 mM)
- solubility ([2]; organic solvent or mixture, Isopropyl acetate, 50°C): 125 to 167 mg/mL (≈ 398 to 532 mM)
- solubility ([2]; organic solvent or mixture, MTBE, 25°C): 16 to 20 mg/mL (≈ 51 to 63.7 mM)
- solubility ([2]; organic solvent or mixture, MTBE, 50°C): 33 to 50 mg/mL (≈ 105 to 159 mM)
- solubility ([2]; organic solvent or mixture, Methanol, 25°C): > 250 mg/mL
- solubility ([2]; organic solvent or mixture, Methanol, 50°C): > 500 mg/mL
- solubility ([2]; organic solvent or mixture, Methyl ethyl ketone, 25°C): 83 to 125 mg/mL (≈ 265 to 398 mM)
- solubility ([2]; organic solvent or mixture, Methyl ethyl ketone, 50°C): 250 to 500 mg/mL (≈ 797 to 1590 mM)
- solubility ([2]; organic solvent or mixture, Tetrahydrofuran, 25°C): > 250 mg/mL
- solubility ([2]; organic solvent or mixture, Tetrahydrofuran, 50°C): > 500 mg/mL
- solubility ([2]; organic solvent or mixture, Toluene, 25°C): 17 to 25 mg/mL (≈ 54.2 to 79.7 mM)
- solubility ([2]; organic solvent or mixture, Toluene, 50°C): 50 to 100 mg/mL (≈ 159 to 319 mM)
- solubility ([2]; Water, 25°C): < 5 mg/mL
- solubility ([2]; Water, 50°C): < 10 mg/mL
SMILES: C[C@@H]1CC[C@H](C(=O)O)CN1C(=O)Cc1ccc(F)cc1Cl [Crystalline form A, (3S,6R)-1-(2-(2-chloro-4-fluorophenyl)acetyl)-6-methylpiperidine-3-carboxylic acid]

— patent EP4772497A1, “POLYMORPHS OF NITROGEN-CONTAINING HETEROCYCLIC COMPOUNDS, AND USES THEREOF” (BNH Research Co., Ltd., priority 2023, dated 2025)
